Laboratory results taken from article PMC4703549 (Cancer research, 2015).
“Also recorded” adds a separate entry of the source. Where two headings read alike, the source gives them in different places.

Experiments:
[1] = test system: TNK2 D163E T205I and T205M Ba/F3 lines; type: cell-based, murine; conditions: T205I and T205M added to D163E, IL-3 independent Ba/F3 lines
[2] = test system: TNK2 D163E cells; type: cell-based, murine; conditions: for IC50: Ba/F3 TNK2 D163E, no IL3, 72 hours, MTS
[3] = test system: TNK2 R806Q cells; type: cell-based, murine; conditions: for IC50: Ba/F3 TNK2 R806Q, no IL3, 72 hours, MTS
[4] = test system: TNK2 S808* and TNK2 Q831fs; test: Phosphorylation of TNK2 truncation mutants in transfected 293T17 cells; type: cell-based, human; conditions: 1 μM dasatinib, 2.5 μM XMD8-87 or 2.5 μM XMD16-5, 3.5 hours
[5] = test system: parental Ba/F3 cells; test: Inhibitor study, MTS viability of control Ba/F3 cells grown in IL3; type: cell-based, murine; conditions: IL3 containing medium; highest tested concentration 1,000 nM

c1ccc(-c2oc3ncnc(NC[C@@H]4CCCO4)c3c2-c2ccccc2)cc1 [AIM-100] was tested, and the “sensitivity of D163E cell lines carrying gatekeeper mutations” value [1] was “resistance”, the IC50 [2] was 0.091 µM and the IC50 [3] was 0.32 µM.

COc1cc(N2CCN(C)CC2)ccc1Nc1ncc2c(n1)N(C)c1ccccc1C(=O)N2 [XMD8-87] was tested, and the “sensitivity of D163E cell lines carrying gatekeeper mutations” value [1] was “resistance”, the “inhibition of phosphorylation of TNK2 truncation mutants” value (“inhibition” for short) [4] was “vast majority of phosphorylation was blocked; also recorded: inhibited; also recorded: potently inhibit” and the IC50 [2] was 0.038 µM. It also gave an IC50 [3] of 0.113 µM.

For CN1c2ccccc2C(=O)Nc2cnc(Nc3ccc(N4CCC(O)CC4)cc3)nc21 [XMD16-5], the “sensitivity of D163E cell lines carrying gatekeeper mutations” value [1] was “resistance”, the “inhibition” value [4] was “vast majority of phosphorylation was blocked; also recorded: inhibited; also recorded: potently inhibit” and the IC50 [2] was 0.016 µM. The IC50 [3] was 0.077 µM.

In the case of Cc1nc(Nc2ncc(C(=O)Nc3c(C)cccc3Cl)s2)cc(N2CCN(CCO)CC2)n1 [dasatinib, N-(2-chloro-6-methyl-phenyl)-2-(6-(4-(2-hydroxyethyl)-piperazin-1-yl)-2-methylpyrimidin-4-ylamino)thiazole-5-carboxamide], the “sensitivity of control or pre-transformation cell lines grown in IL3” value [5] is reported as “did not show sensitivity; also recorded: completely insensitive”, the “sensitivity of D163E cell lines carrying gatekeeper mutations” value [1] is reported as “resistance” and the “inhibition” value [4] is reported as “vast majority of phosphorylation was blocked; also recorded: inhibited”. For the same compound, the “sensitivity of post-transformation line” value ([2]; Ba/F3 TNK2 D163E post-interleukin-3-independent transformation) was “sensitive to dasatinib at low nanomolar concentrations”, the IC50 [2] was under 0.01 µM and the IC50 ([2]; listed as Dasatinib) was about 0.0001 µM. The “sensitivity of post-transformation line” value ([3]; Ba/F3 TNK2 R806Q post-interleukin-3-independent transformation) was “sensitive to dasatinib at low nanomolar concentrations”, the IC50 [3] was under 0.01 µM and the IC50 ([3]; listed as Dasatinib) was 0.0013 µM.
